Here are results for 6 compounds from patent EP2662361A1, “Pyrazol indanyl carboxamides” (Bayer CropScience AG, priority 2012, dated 2013).

The nature of this series: physchem. The series is classed as physicochemical. Conditions: reversed-phase c18 hplc, pH 2.7. As for the experimental part: The logP values were measured in accordance with EEC Directive 79/831 Annex V.A8 by HPLC (High Performance Liquid Chromatography) using reversed-phase columns (C 18) by the following methods: • [a] The LC-MS determination in the acidic range is effected at pH 2.7 with 0.1% aqueous formic acid and acetonitrile (contains 0.1 % formic acid) as eluents; linear gradient from 10 % acetonitrile to 95 % acetonitrile.

What is called chromatographic logP is a lipophilicity value derived from retention on a column. Read a high chromatographic logP as a more lipophilic compound. In turn, `Cn1cc(C(=O)Nc2cccc3c2CC(O)C3)c(C(F)F)n1` (stereo not drawn) [compound 1] registered a chromatographic logP of 1.42.

In turn, `CC(C)OC1Cc2cccc(NC(=O)c3cn(C)nc3C(F)F)c2C1` (stereo not drawn) [compound 2] showed a chromatographic logP of 2.71.

For `CC(C)C1Cc2cccc(NC(=O)c3cn(C)nc3C(F)F)c2C1` (stereo not drawn) [compound 3], the chromatographic logP was 3.77.

Regarding `CC(C)CC1Cc2cccc(NC(=O)c3cn(C)nc3C(F)F)c2C1` (stereo not drawn) [compound 4], the chromatographic logP is 4.14.

`CC1c2cccc(NC(=O)c3cn(C)nc3C(F)F)c2CC1(C)C` (stereo not drawn) [compound 5] returned a chromatographic logP of 3.53.

For `CC1Cc2c(NC(=O)c3cn(C)nc3C(F)F)cccc2C1(C)C` (stereo not drawn) [compound 6], the chromatographic logP turned out to be 3.55.
